Experimental data from paper PMC12213745, “Compounds from Cyclocarya paliurus leaves inhibit binary division of methicillin-resistant Staphylococcus aureus by disrupting FtsZ dynamic” (Frontiers in Microbiology, 2025).
Converted amounts (≈) assume the structure as drawn. Where two headings read alike, the source gives them in different places.

What was measured:
P. aeruginosa PA14 = assay: MIC, broth microdilution (CLSI); assay type: cell-based; details: Pseudomonas aeruginosa
Excerpt: (§1) Staphylococcus aureus ATCC25923 and Escherichia coli ATCC25922 were obtained from the American Type Culture Collection (ATCC, Manassas, VA, USA). The Methicillin-resistant S. aureus (MRSA) clinical isolate MRSA-4, previously confirmed as mecA-positive and characterized for its antibiotic resistance profile ([Sun et al., 2023]), was used in this study. Staphylococcus epidermidis (GDMCC 1.143), Enterococcus faecalis (GDMCC 1.164), and Salmonella enterica subsp. enterica (GDMCC 1.1114) were obtained from the Guangdong Microbial Culture Collection Center (GDMCC, Guangzhou, China). The Pseudomonas aeruginosa PA14 strain was kindly provided by Professor Min Wu (Southwest Medical University, China). All bacterial strains were routinely cultured in Mueller-Hinton broth (MHB) or Luria-Bertani (LB) broth medium at 37°C with shaking at 200 rpm. Vancomycin was purchased from Solarbio Science & Technology Co., Ltd. (Beijing, China), and oxacillin was obtained from Taiji Group Hengsheng Pharmaceutical Co., Ltd. (Chengdu, China). The polyclonal rabbit primary anti-body to FtsZ was purchased from Abcam PLC (Cambridge, UK). Alexa488-conjugated goat anti-rabbit IgG was purchased from ZSGB-BIO Biotechnology (Beijing, China). DAPI staining solution was purchased from Beyotime Biotechnology (Shanghai, China).
(§2) The minimum inhibitory concentrations (MICs) of the test compounds (AA, MA, and UA) were determined using the standard broth microdilution method in accordance with the Clinical and Laboratory Standards Institute (CLSI) guidelines ([Humphries et al., 2021]). Bacteria were cultured in MHB or LB broth at 37°C with shaking (200 rpm) to the logarithmic phase, then diluted to a final density of 1 × 10^6 CFU/mL. Test compounds (dissolved in DMSO) and positive controls (vancomycin and oxacillin) were diluted in MHB and serially twofold diluted in 96-well plates. Each well was inoculated with 100 μL of bacterial suspension (1 × 10^6 CFU/mL), yielding a final bacterial density of 5 × 10^5 CFU/mL and a total volume of 200 μL. The final concentrations tested were 128 to 1 μg/mL for AA, MA, and UA; 16 to 0.5 μg/mL for vancomycin; and 64 to 0.0625 μg/mL for oxacillin. DMSO was used as a solvent control. Plates were incubated statically at 37°C for 18–24 h. After incubation, the OD600 was measured using a microplate reader (SpectraMax i3x, Molecular Devices, CA, USA). The MIC was defined as the lowest compound concentration that caused ≥ 90% inhibition of bacterial growth compared to the drug-free growth control. All tests were performed in three independent biological replicates.
(§3) Following the isolation and identification of AA, MA, and UA from ECPL, we evaluated their antibacterial activity and spectrum. The MICs of the compounds were determined against MRSA-4, S. aureus ATCC25923, S. epidermidis, and E. faecalis (Gram-positive), as well as P. aeruginosa PA14, E. coli ATCC25922, and S. enterica subsp. Enterica (Gram-negative) using the standard broth microdilution method in accordance with CLSI guidelines ([Humphries et al., 2021]).

S. aureus ATCC25923 = assay: MIC, broth microdilution (CLSI); assay type: cell-based; details: Staphylococcus aureus
Excerpt: as §1, §2, §3

MRSA-4 = assay: SIM analysis of Z-ring assembly (FtsZ immunostaining); assay type: cell-based, Methicillin-resistant S. aureus; details: 1 × MIC, 4 h
Experimental: MRSA-4 was cultured in MHB at 37°C to mid-logarithmic phase and subsequently treated with AA, MA, or UA at concentration of 1 × MIC, or with PBS as a control, for 4 h at 37°C. Following treatment, cells were harvested by centrifugation, washed once with PBS, and fixed with 4% (w/v) paraformaldehyde in PBS for 15 min at room temperature. Fixed cells were then washed twice with PBS. The pellets were resuspended in 90 μL GTE buffer (50 mM glucose, 25 mM Tris–HCl, pH 8.0, 10 mM EDTA) containing 10 μL lysozyme (3 mg/mL) and incubated for 3 min at room temperature. The suspension was applied onto poly-L-lysine-coated glass slides and allowed to adhere. After removing excess liquid, the slides were blocked with PBS containing 2% (w/v) BSA and 0.1% (v/v) Tween-20 for 15 min. Slides were incubated overnight at 4°C with polyclonal rabbit anti-FtsZ primary antibody, followed by three washes with PBST (PBS containing 0.1% Tween-20). Alexa Fluor 488-conjugated goat anti-rabbit IgG as the secondary antibody was then applied and incubated for 1 h at room temperature in the dark. After washing, nuclei were stained with DAPI for 3–5 min, followed by 2–3 times PBS washes to remove excess stain. Coverslips were mounted with 50% (v/v) glycerol in PBS and sealed with nail polish. Z-ring structures were visualized using structured illumination microscopy (N-SIM S, Nikon, Tokyo, Japan).
Given that septum formation is orchestrated by the FtsZ-based Z-ring, we next examined whether AA, MA, and UA affect Z-ring assembly. Structured illumination microscopy (SIM) was employed to visualize FtsZ localization in MRSA-4 cells treated with each compound at 1 × MIC for 4 h.

SaFtsZ = target: T1, SaFtsZ (Staphylococcus aureus, UniProt P0A031); assay: FtsZ polymerization assay (A360); assay type: biochemical; details: 10 μM SaFtsZ; 0.25 × and 0.5 × MIC; vs DMSO control
T1 construct: purchased Cytoskeleton, Inc. FTZ02
T1 sequence (P0A031 1-390): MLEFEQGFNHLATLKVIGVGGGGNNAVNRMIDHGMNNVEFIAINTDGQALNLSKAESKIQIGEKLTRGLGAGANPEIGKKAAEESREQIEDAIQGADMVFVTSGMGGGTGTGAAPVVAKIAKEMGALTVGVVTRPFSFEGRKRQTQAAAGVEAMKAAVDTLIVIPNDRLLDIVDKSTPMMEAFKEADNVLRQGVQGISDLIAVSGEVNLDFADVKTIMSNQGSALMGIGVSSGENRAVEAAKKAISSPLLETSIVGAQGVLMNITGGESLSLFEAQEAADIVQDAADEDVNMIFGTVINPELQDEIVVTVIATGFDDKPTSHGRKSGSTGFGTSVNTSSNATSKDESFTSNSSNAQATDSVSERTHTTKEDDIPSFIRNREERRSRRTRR
Experimental: To assess the effects of AA, MA, and UA on FtsZ polymerization, an in vitro FtsZ polymerization assay was performed. […] Polymerization was initiated by the addition of polymerization buffer components, bringing the final concentrations to 250 mM KCl and 5 mM MgCl2 Absorbance at 360 nm (A360) was monitored for 5 min to establish a stable baseline. GTP was then added to a final concentration of 1 mM. Polymerization was tracked by measuring A360 for 30 min using a microplate reader (SpectraMax i3x, Molecular Devices, CA, USA).
To determine whether the disruptions of Z-ring were due to direct effects on FtsZ polymerization, we performed in vitro polymerization assays. FtsZ polymerization was assessed by monitoring the time-dependent increase in A360 upon induction using a microplate reader. Briefly, 10 μM SaFtsZ was pre-incubated with AA, MA, UA or DMSO, and polymerization was initiated by adding K^+, Mg^2+, and GTP.

[1] = P. aeruginosa PA14, ≥ 90% growth inhibition, 18–24 h, read-out: MIC
[2] = S. aureus ATCC25923, ≥ 90% growth inhibition, 18–24 h, read-out: MIC

Row | Structure (SMILES) | MIC (P. aeruginosa PA14; [1]) | MIC (S. aureus ATCC25923; [2]) | FtsZ localization / Z-ring formation (SIM) (MRSA-4) | effect on FtsZ polymerization (A360) (SaFtsZ) | MIC (P. aeruginosa PA14; PA14) | MIC (S. aureus ATCC25923; ATCC25923)
1 | C[C@H]1[C@H](C)CC[C@]2(C(=O)O)CC[C@]3(C)C(=CC[C@@H]4[C@@]5(C)C[C@@H](O)[C@H](O)[C@@](C)(CO)[C@@H]5CC[C@]43C)[C@H]12 [AA, asiatic acid] | > 128 µg/mL | 32 µg/mL (≈ 65.5 µM) | aberrant FtsZ localization | significantly enhanced FtsZ polymerization |  | 
2 | C[C@H]1[C@H](C)CC[C@]2(C(=O)O)CC[C@]3(C)C(=CC[C@@H]4[C@@]5(C)CC[C@H](O)C(C)(C)[C@@H]5CC[C@]43C)[C@H]12 [UA, ursolic acid] | > 128 µg/mL | 16 µg/mL (≈ 35 µM) | aberrant FtsZ localization | markedly inhibited FtsZ polymerization |  | 
3 | CC1(C)CC[C@]2(C(=O)O)CC[C@]3(C)C(=CC[C@@H]4[C@@]5(C)C[C@@H](O)[C@H](O)C(C)(C)[C@@H]5CC[C@]43C)[C@@H]2C1 [MA, maslinic acid] |  |  | aberrant FtsZ localization | markedly inhibited FtsZ polymerization | > 128 µg/mL | 32 µg/mL (≈ 67.7 µM)
